Where “and” joins values, the source holds several entries; their conditions need not be identical. Equal entries are not always repeated.
Legend:
Type in all cases: cell-based
Set-up in all cases: unit not given here
[1] = tested on: skin cancer cells (SK-MEL-2)
[2] = tested on: colorectal cancer cells (HCT15)
[3] = tested on: lung cancer cells (A549)
[4] = tested on: ovarian cancer cells (SK-OV-3)

SMILES: CC1=CC(=O)OCC23CCC(C)(O)C4CC5(O)C(CC(OC(=O)C=CC=CC(C(C)O)OCC1)C52C)OC43 [compound 1, (1R,4Z,6E,8R,12E,16aR,19S,20S,20aR,22R,23S,23aS)-19,23-dihydroxy-8-((R)-1-hydroxyethyl)-12,19,23a-trimethyl-10,11,17,18,19,20,20a,22,23,23a-decahydro-1H-1,22:20,23-dimethano[1,6,12]trioxacyclooctadecino[3,4-d]chromene-3,14(8H,16H)-dione]
- Anticancer activity (value at given concentration) [1]: 96.98 and 91.60 and 95.73 and 101.17 and 96.51 and 96.60
- Anticancer activity (value at given concentration) [2]: 103.41 and 91.11 and 101.55 and 101.52 and 102.70 and 101.58
- Anticancer activity (value at given concentration) [3]: 97.91 and 93.12 and 93.03 and 94.31 and 92.44 and 95.94
- Anticancer activity (value at given concentration) [4]: 103.77 and 87.76 and 98.54 and 100.24 and 89.90 and 95.08

From patent US11168092B2 (priority 2019, dated 2021)
